Bridge positions count the residues as written; N and C are the ends. Square brackets hold non-standard residues; d marks the D form. Peptide text beside a SMILES is read from it. I, II: the chains in the order shown. * marks the point of attachment. Quinaldoyl(3-OH) = O=C(c1nc2ccccc2cc1O)*; NMeC = CN[C@@H](CS)C(=O)O
Columns and labels:
Assay type in all cases: functional
SK-BR-3 = experiment: Cytotoxicity against human SK-BR3 cells after 72 hrs by SRB assay; details: SK-BR-3, 72 h
LoVo [1] = experiment: Cytotoxicity against doxorubicin resistant human LoVo cells after 72 hrs by SRB assay
HeLa = experiment: Cytotoxicity against human HeLa cells after 72 hrs by SRB assay
K562 = experiment: Cytotoxicity against human K562 cells after 72 hrs by SRB assay; details: K562, 72 h
[2] = Cytotoxicity against human IGROV cells after 72 hrs by SRB assay
LNCaP = experiment: Cytotoxicity against human LNCaP cells after 72 hrs by SRB assay
A549 = experiment: Cytotoxicity against human A549 cells after 72 hrs by SRB assay; details: A549, 72 h
SK-MEL-28 = experiment: Cytotoxicity against human SK-MEL-28 cells after 72 hrs by SRB assay; details: SK-MEL-28, 72 h
PANC-1 = experiment: Cytotoxicity against human PANC1 cells after 72 hrs by SRB assay; details: PANC-1, 72 h
HT-29 = experiment: Cytotoxicity against human HT29 cells after 72 hrs by SRB assay; details: HT-29, 72 h
LoVo [3] = experiment: Cytotoxicity against human LoVo cells after 72 hrs by SRB assay
DU-145 = experiment: Cytotoxicity against human DU145 cells after 72 hrs by SRB assay; details: DU-145, 72 h
[4] = read-out: LC50 (the source's name)

## CSC[C@H]1C(=O)SC[C@@H](NC(=O)c2nc3ccccc3cc2O)C(=O)NCC(=O)N(C)[C@H]2CSSC[C@@H](C(=O)N1C)N(C)C(=O)CNC(=O)[C@H](NC(=O)c1nc3ccccc3cc1O)CSC(=O)[C@H](CSC)N(C)C2=O [THIOCORALINE A] (I: {Quinaldoyl(3-OH)}-[dC]G[NMeC][NMeC](Me) / II: {Quinaldoyl(3-OH)}-[dC]G[NMeC][NMeC](Me); thioester I:1-II:C, I:C-II:1; disulfide I:3-II:3)
SK-BR-3
  GI50: 2.2 nM
  TGI: 8.9 nM
SK-BR-3; [4]
  CC50: 30.8 nM
LoVo [1]
  GI50: 212 nM
  TGI: 2380 nM
HeLa
  GI50: 1.3 nM
  TGI: 4.7 nM
HeLa; [4]
  CC50: 22.6 nM
K562
  GI50: 1.3 nM
  TGI: 4.6 nM
K562; [4]
  CC50: 9.2 nM
[2]
  GI50: 1.9 nM
  TGI: 11.1 nM
[2]; [4]
  CC50: 1260 nM
LNCaP
  GI50: 3 nM
  TGI: 5 nM
LNCaP; [4]
  CC50: 14.2 nM
A549
  GI50: 4.8 nM
  TGI: 19.3 nM
A549; [4]
  CC50: 95.6 nM
SK-MEL-28
  GI50: 3 nM
  TGI: 14 nM
SK-MEL-28; [4]
  CC50: 50.3 nM
PANC-1
  GI50: 2.5 nM
  TGI: 82.5 nM
PANC-1; [4]
  CC50: 378 nM
HT-29
  GI50: 3.9 nM
  TGI: 73.6 nM
HT-29; [4]
  CC50: 6290 nM
LoVo [3]
  GI50: 7.2 nM
  TGI: 263 nM
LoVo [3]; [4]
  CC50: 284 nM
DU-145
  GI50: 1.9 nM
  TGI: 6.4 nM
DU-145; [4]
  CC50: 1480 nM

Source: ChEMBL document CHEMBL1145432, “Antitumor activity, X-ray crystal structure, and DNA binding properties of thiocoraline A, a natural bisintercalating thiodepsipeptide” (2007)
